In US11963972B2, “Antiviral agents and nucleoside analogs for treatment of Zika virus” (priority 2016, dated 2024):
Read-outs that look alike come from different tables or passages of the source.

How the values were obtained:
[1] = tested on: ZIKV Puerto Rico strain (PRVABC59); assay: ZIKV CPE MTS assay in human neuroblastoma (U251) cells; format: cell-based, Zika virus; conditions: U251 cells
Method: (§1) […] Cell cytopathic effect (CPE) MTS assay (CellTiter 96@k) AQueous One Solution Cell Proliferation Promega kit, Promega) was measured four (Vero) or five (U251 or Huh7) days after compound addition to determine the levels of replication inhibition.

[2] = tested on: ZIKV Puerto Rico strain (PRVABC59); assay: ZIKV CPE MTS assay in Vero cells; format: cell-based, Zika virus; conditions: Vero cells
Method: as §1

[3] = tested on: ZIKV PRVABC59; assay: Combination of SSZ with control 1, ZIKV CPE assay in Vero cells; format: cell-based, Zika virus; conditions: Vero cells pretreated 18-20 h, MOI 0.01 PRVABC59, read-out: EC50, drug alone, ZIKV CPE assay
Method: Vero cells were pretreated for 18-20 h with SSZ (fixed concentrations of 300, 200 or 100 μM) plus control 1 (10, 5, 2.5 and 0.25 μM) prior to infection with MOI 0.01 PRVABC59 (drugs were replenished right after infection).
Drug-drug interactions were analyzed by using CalcuSyn (Biosoft, Ferguson, MO) computer software: 300, 200, and 100 μM SSZ in the presence of 10, 5, 2.5, and 0.25 μM of control 1 was evaluated versus each drug alone for each drug concentration. The interpretation of Combination Index (CI) values are as follows: Antagonism: CI value>1.0, Additive effect: CI value=1.0; Synergism: CI value=<1.0.

[4] = tested on: ZIKV Puerto Rico strain (PRVABC59); assay: ZIKV CPE MTS assay in Huh7 cells; format: cell-based, Zika virus; conditions: Huh7 cells
Method: as §1

[5] = tested on: DENV-2 replicon; assay: DENV-2 replicon model; format: cell-based; conditions: Dengue virus, DENV2
[6] = tested on: DENV-2; assay: DENV-2 VERO infectious assay; format: cell-based, Dengue virus
[7] = tested on: baby hamster kidney (BHK) cells
[8] = tested on: DENV-2; assay: DENV-2 Huh-7 infectious assay; format: cell-based; conditions: Dengue virus, DENV2, Huh-7
[9] = human, in vivo; cited from earlier work
[10] = tested on: Norovirus; assay: Norovirus activity test; format: cell-based
[11] = tested on: WNV replicon; assay: WNV replicon model; format: cell-based; conditions: West Nile virus
[12] = tested on: HCV; assay: HCV activity test; format: cell-based

C[C@@]1(O)[C@H](O)[C@@H](CO)O[C@H]1n1cc(F)c2cnc(N)nc21 [Control 1, beta-D-2′-C—Me-2-amino-7-fluoro-7-deazapurine ribose, reference compound]
EC50 ([1]; no pretreat, read-out: ZIKV-CPE MTS Assay EC50, μM, U251, No pretreat): 3.5 µM
EC50 ([1]; pretreated 18-20 h before infection, read-out: ZIKV-CPE MTS Assay EC50, μM, U251, Pretreat): 4 µM
EC50 ([2]; no pretreat, read-out: ZIKV-CPE MTS Assay EC50, μM, Vero, No pretreat): 0.8 µM
EC50 ([2]; pretreated 18-20 h before infection, read-out: ZIKV-CPE MTS Assay EC50, μM, Vero, Pretreat): 0.4 µM
EC50 [3]: 5.4 µM
EC50 ([4]; no pretreat, read-out: ZIKV-CPE MTS Assay EC50, μM, Huh7, No pretreat): 0.4 µM
EC50 ([4]; pretreated 18-20 h before infection, read-out: ZIKV-CPE MTS Assay EC50, μM, Huh7, Pretreat): 0.5 µM

O=C(O)c1cc(/N=N/c2ccc(S(=O)(=O)Nc3ccccn3)cc2)ccc1O [Sulfasalazine]
EC50 [5]: 8.3 µM
inhibition at 30 µM ([5]; at 30 μM): 77.4%
EC50 ([1]; Zika virus, U-251, no pretreat, read-out: ZIKV-CPE MTS Assay EC50, μM, U251, No pretreat): 385 µM
EC50 ([1]; Zika virus, U-251, pretreated 18-20 h before infection, read-out: ZIKV-CPE MTS Assay EC50, μM, U251, Pretreat): 318 µM
EC50 ([6]; Dengue virus, DENV2, Vero): > 100 µM
% inhibition, DENV-2 in Vero cells ([6]; Vero, concentration not given): < 1%
EC50 ([2]; Zika virus, no pretreat, read-out: ZIKV-CPE MTS Assay EC50, μM, Vero, No pretreat): 181 µM
EC50 ([2]; Zika virus, pretreated 18-20 h before infection, read-out: ZIKV-CPE MTS Assay EC50, μM, Vero, Pretreat): 273 µM
Toxicity in baby hamster kidney (BHK) cells [7]: > 100 µM
toxicity in culture (no toxicity up to) [7]: > 100 µM
EC50 ([3]; Zika virus): 210 µM
EC50 [8]: 22.2 µM
EC90 [8]: 61.9 µM
doses taken without side effects [9]: up to 4 g/day
safety in pregnancy [9]: safe for a person to take while pregnant
effect on Norovirus (no effect observed up to) [10]: > 100 µM
EC50 [11]: 9.9 µM
EC90 [11]: 78.3 µM
inhibition at 30 µM ([11]; at 30 μM): 78.5%
effect on HCV (no effect observed up to) [12]: > 100 µM
EC50 ([4]; Zika virus, Huh-7, no pretreat, read-out: ZIKV-CPE MTS Assay EC50, μM, Huh7, No pretreat): 255 µM
EC50 ([4]; Zika virus, Huh-7, pretreated 18-20 h before infection, read-out: ZIKV-CPE MTS Assay EC50, μM, Huh7, Pretreat): 341 µM
